Experimental data published in patent US20150209315A1 (Cumberland Pharmaceuticals, priority 2009, published 2015).
Where “and” joins values, the source holds several entries; their conditions need not be identical. Equal entries are not always repeated.

Experiments:
Format in all cases: in vivo, human
[1] = system: post-operative adult patients; experiment: Example 1: morphine usage in the 24 hours following surgery
Method: The reference product, dose and mode of administration was normal saline, 100 ml, intravenous. Saline was chosen as the control group (placebo) for this study, to ensure blinding and allow for analysis of treatment effect. The duration of treatment was up to 5 days post surgery. […] Groups were stratified according to two age groups: <45 and >45 to 70 years of age and two weight groups: <75 kg and >75 kg of weight. The study participants were randomized based on criteria for an efficacy evaluable population (EEP) versus an intent to treat population (ITT). The ITT included all patients who were randomized and received at least a partial dose of ibuprofen. […] Eligible patients were randomized to one of the three treatment groups. All patients were able (but were not required) to receive morphine until approximately 45 minutes before the end of the surgical procedure. After that time, only fentanyl was allowed until the end of the operation. The first dose of ibuprofen was administered at approximately the initiation of skin closure. […] Other than ibuprofen or placebo, only morphine was administered for pain. […] Additional morphine could be administered at the discretion of the treating physician if adequate pain control had still not been achieved. Patients given non-morphine analgesics were classified as treatment failures. Treatment failures were not replaced. […] Secondary efficacy parameters were also evaluated and compared among the treatment groups using appropriate statistical methods described in the statistical analysis section of the protocol. Safety information was compared between the treatment groups using Chi-Square or Cochran-Mantel-Haenszel test. Demographic, background and baseline information among the treatment groups was also described. […] Efficacy analyses were performed on the Intent to Treat (ITT) population and the Efficacy Evaluable Population (EEP). In addition a subset of EEP patients who underwent abdominal hysterectomies (AH) were analyzed separately to evaluate efficacy in a more homogenous population.

[2] = system: post-operative adult patients; experiment: Example 1: treatment failures; conditions: ITT
Method: Eligible patients were randomized to one of the three treatment groups. All patients were able (but were not required) to receive morphine until approximately 45 minutes before the end of the surgical procedure. After that time, only fentanyl was allowed until the end of the operation. The first dose of ibuprofen was administered at approximately the initiation of skin closure. […] Other than ibuprofen or placebo, only morphine was administered for pain. […] Additional morphine could be administered at the discretion of the treating physician if adequate pain control had still not been achieved. Patients given non-morphine analgesics were classified as treatment failures. Treatment failures were not replaced. A treatment failure was defined as a patient that required narcotic pain medication, other than morphine, or non-narcotic medications including the use of another NSAID through the treatment period. If other narcotics (other than morphine) or NSAIDS were started, ibuprofen/placebo was discontinued. In the ITT population, there was a numerical trend but not a statistically significant difference for fewer treatment failures in the ibuprofen groups compared to the placebo group: […]

[3] = system: post-operative adult patients; experiment: Example 2: patient self-assessment of pain, VAS with movement; conditions: 800 mg
[4] = system: post-operative adult patients; experiment: Example 2: adverse events; conditions: 800 mg
Method: Patients were evaluated and compared for morphine requirements between the active doses and placebo using analysis of variance and covariance procedures at an overall alpha level of 0.05. Secondary efficacy parameters were also evaluated and compared among the treatment groups using appropriate statistical methods described in the statistical analysis section of the protocol. Safety information was compared between the treatment groups using Chi-Square or Cochran-Mantel-Haenszel test. Demographic, background and baseline information among the treatment groups was also described.

[5] = system: patients undergoing orthopedic surgical procedures; experiment: Example 3: morphine use post-surgery through study hour 28; conditions: for Morphine Requirement, LS Means Difference (95% CI): 800 mg vs placebo; for Morphine Requirement, LS Means Difference (95% CI) / Morphine Requirement, LS Means (SE) / Morphine Requirement, Mean (SD) / Morphine Requirement, Median: Post-Op-28 hours; for decrease in the mean morphine used in the postoperative period / Morphine Requirement, LS Means (SE) / Morphine Requirement, Mean (SD) / Morphine Requirement, Median: 800 mg
[6] = system: patients undergoing orthopedic surgical procedures; experiment: Example 3: adverse events
Method: Patients were evaluated and compared for morphine requirements between the active doses and placebo using analysis of variance and covariance procedures at an overall alpha level of 0.05. Secondary efficacy parameters were also evaluated and compared among the treatment groups using appropriate statistical methods described in the statistical analysis section of the protocol. For the adverse events, instead of using an unadjusted Chi-square test and a Cochran-Mantel-Haenszel test adjusted for center to compare treatment groups with respect to the numbers of patients reporting AEs, a Fisher's exact test was used to compare treatment groups for any AE that was reported by five or more patients.

[7] = 400 mg, AH (abdominal hysterectomies)
[8] = 800 mg, AH (abdominal hysterectomies)

In the case of `CC(C)Cc1ccc(C(C)C(=O)O)cc1` (stereo not drawn) [Ibuprofen, 2-(4-isobutylphenyl) propionic acid], the “Morphine Usage in the 24 Hours Following Surgery, % Reduction vs. PBO” value (shortened to “Morphine Usage … % Reduction vs. PBO”) [1, 7] was 15.9% and 16%, the “Morphine Usage in the 24 Hours Following Surgery, Median” value (“Morphine Usage … Median” below) [1, 7] was 45.00 and the “Morphine Usage … % Reduction vs. PBO” value ([1]; 400 mg, AH (abdominal hysterectomies), listed as IVIb) was 15.89%. For the same compound, the “Morphine Usage … % Reduction vs. PBO” value ([1]; 400 mg, EEP) was 4.4%, the “Morphine Usage … Median” value ([1]; 400 mg, EEP) was 43.00 and the “Morphine Usage … % Reduction vs. PBO” value ([1]; 400 mg, EEP, listed as IVIb) was 4.44%. For the same compound, the “Morphine Usage … % Reduction vs. PBO” value ([1]; 400 mg, ITT) was 2.76%, the “Morphine Usage … Median” value ([1]; 400 mg, ITT) was 44.00 and the “Morphine Usage … % Reduction vs. PBO” value [1, 8] was 41.1% and 41%. The “Morphine Usage … Median” value [1, 8] was 31.50, the “Morphine Usage … % Reduction vs. PBO” value ([1]; 800 mg, AH (abdominal hysterectomies), listed as IVIb) was 41.12% and the “Morphine Usage … Median” value ([1]; 800 mg, EEP) was 33.50. For the same compound, the “Morphine Usage … % Reduction vs. PBO” value ([1]; 800 mg, EEP, listed as IV ibuprofen) was 26%, the “Morphine Usage … % Reduction vs. PBO” value ([1]; 800 mg, EEP, listed as IVIb) was 25.56% and the “Morphine Usage … % Reduction vs. PBO” value ([1]; 800 mg, ITT) was 21.6%. For the same compound, the “Morphine Usage … Median” value ([1]; 800 mg, ITT) was 35.50, the “Morphine Usage … % Reduction vs. PBO” value ([1]; 800 mg, ITT, listed as IVIb) was 21.55% and the “treatment failures, number of patients” value ([2]; 400 mg) was 7. For the same compound, the “treatment failures, percent of patients” value ([2]; 400 mg) was 5%, the “treatment failures, number of patients” value ([2]; 800 mg) was 4 and the “treatment failures, percent of patients” value ([2]; 800 mg) was 3%. For the same compound, the “VAS Score measured with Movement (median)” value (shortened to “VAS Score … (median)”) ([3]; EEP, 1-Hour) was 9.0, the “VAS Score measured with Movement, % Reduction vs Placebo” value (from here on “VAS Score … % Reduction vs Placebo”) ([3]; EEP, 1-Hour) was −12.5% and the “VAS Score … (median)” value ([3]; EEP, 3-Hour) was 7.0. The “VAS Score … % Reduction vs Placebo” value ([3]; EEP, 3-Hour) was 0.0%, the “VAS Score … (median)” value ([3]; EEP, 6-Hour) was 6.0 and the “VAS Score … % Reduction vs Placebo” value ([3]; EEP, 6-Hour) was 0.0%. The “VAS Score … (median)” value ([3]; EEP, 9-Hour) was 5.0, the “VAS Score … % Reduction vs Placebo” value ([3]; EEP, 9-Hour) was 0.0% and the “VAS Score … (median)” value ([3]; EEP, 12-Hour) was 4.0. For the same compound, the “VAS Score … % Reduction vs Placebo” value ([3]; EEP, 12-Hour) was 20.0%, the “VAS Score … (median)” value ([3]; EEP, 15-Hour) was 3.0 and the “VAS Score … (median)” value ([3]; EEP, 18-Hour) was 3.0. For the same compound, the “VAS Score … % Reduction vs Placebo” value ([3]; EEP, 18-Hour) was 25.0%, the “VAS Score … (median)” value ([3]; EEP, 21-Hour) was 3.0 and the “VAS Score … % Reduction vs Placebo” value ([3]; EEP, 21-Hour) was 25.0%. For the same compound, the “VAS Score … (median)” value ([3]; EEP, 24-Hour) was 3.0, the “VAS Score … % Reduction vs Placebo” value ([3]; EEP, 24-Hour) was 40.0% and the “VAS Score … (median)” value ([3]; ITT, 1-Hour) was 9.0. For the same compound, the “VAS Score … % Reduction vs Placebo” value ([3]; ITT, 1-Hour) was −12.5%, the “VAS Score … (median)” value ([3]; ITT, 3-Hour) was 7.0 and the “VAS Score … % Reduction vs Placebo” value ([3]; ITT, 3-Hour) was 0.0%. For the same compound, the “VAS Score … (median)” value ([3]; ITT, 6-Hour) was 6.0, the “VAS Score … % Reduction vs Placebo” value ([3]; ITT, 6-Hour) was 0.0% and the “VAS Score … (median)” value ([3]; ITT, 9-Hour) was 5.0. The “VAS Score … % Reduction vs Placebo” value ([3]; ITT, 9-Hour) was 3.8%, the “VAS Score … (median)” value ([3]; ITT, 12-Hour) was 4.3 and the “VAS Score … % Reduction vs Placebo” value ([3]; ITT, 12-Hour) was 10.4%. For the same compound, the “VAS Score … (median)” value ([3]; ITT, 15-Hour) was 3.4, the “VAS Score … % Reduction vs Placebo” value ([3]; ITT, 15-Hour) was 22.7% and the “VAS Score … (median)” value ([3]; ITT, 18-Hour) was 3.0. The “VAS Score … (median)” value ([3]; ITT, 21-Hour) was 3.0, the “VAS Score … % Reduction vs Placebo” value ([3]; ITT, 21-Hour) was 34.8% and the “VAS Score … (median)” value ([3]; ITT, 24-Hour) was 3.6. For the same compound, the “VAS Score … % Reduction vs Placebo” value ([3]; ITT, 24-Hour) was 20.0%, the “patients experiencing adverse events or serious adverse events vs placebo” value [4] was “no significant differences in the number of patients experiencing adverse events or serious adverse events between groups” and the “Morphine Requirement, LS Means Difference (95% CI)” value ([5]; AT) was −16.6 (−24.7, −8.4). For the same compound, the “Morphine Requirement, LS Means Difference (95% CI)” value ([5]; EEP) was −18.1 (−27.2, −9.0), the “Morphine Requirement, LS Means Difference (95% CI)” value ([5]; ITT) was −16.4 (−24.6, −8.1) and the “decrease in the mean morphine used in the postoperative period” value (“decrease in the mean morphine used” below) ([5]; AT) was 30.9%. For the same compound, the “Morphine Requirement, LS Means (SE)” value ([5]; AT) was 44.3 (5.7), the “Morphine Requirement, Mean (SD)” value ([5]; AT) was 41.1 (27.3) and the “Morphine Requirement, Median” value ([5]; AT) was 38.0. The “Morphine Requirement, LS Means (SE)” value ([5]; EEP) was 43.7 (5.9), the “Morphine Requirement, Mean (SD)” value ([5]; EEP) was 43.7 (26.9) and the “Morphine Requirement, Median” value ([5]; EEP) was 40.5. For the same compound, the “decrease in the mean morphine used” value ([5]; EPP) was 33.3%, the “decrease in the mean morphine used” value ([5]; ITT) was 30.3% and the “Morphine Requirement, LS Means (SE)” value ([5]; ITT) was 45.2 (5.8). The “Morphine Requirement, Mean (SD)” value ([5]; ITT) was 41.9 (26.9), the “Morphine Requirement, Median” value ([5]; ITT) was 38.0 and the deaths ([6]; 800 mg) was “no deaths reported”. The “incidence of serious adverse events vs placebo” value ([6]; 800 mg) was “no statistically significant difference”, the “patients that experienced dyspepsia (treatment-emergent adverse events)” value ([6]; 800 mg vs placebo) was “significantly more patients in the placebo group” and the “patients that experienced vomiting (treatment-emergent adverse events)” value ([6]; 800 mg vs placebo) was “significantly more patients in the intravenous ibuprofen group”.
